From patent US9212163B2, “Pesticidal compositions and processes related thereto” (Dow AgroSciences LLC, priority 2012, dated 2015)

What follows are compounds tested on Beet Armyworm (BAW) (Spodoptera exigua) (assay: Bioassay on Beet Armyworm (BAW), 128-well diet tray assay). Conditions: Table 3: Assay Results Part 1.
Assay type: in vivo
Procedure: Certain molecules disclosed in this document were tested against BAW, CEW and CL using procedures described in the following examples. In the reporting of the results, the “BAW & CEW & CL Rating Table” was used (See Table Section).
Bioassays on BAW (Spodoptera exigua)
Bioassays on BAW were conducted using a 128-well diet tray assay. One to five second instar BAW larvae were placed in each well (3 mL) of the diet tray that had been previously filled with 1 mL of artificial diet to which 50 μg/cm^2 of the test compound (dissolved in 50 μL of 90:10 acetone-water mixture) had been applied (to each of eight wells) and then allowed to dry. Trays were covered with a clear self-adhesive cover, and held at 25° C., 14:10 light-dark for five to seven days. Percent mortality was recorded for the larvae in each well; activity in the eight wells was then averaged. The results are indicated in the tables entitled “Table 3: Assay Results Part 1” and “Table 4: Assay Results Part 2” (See Table Section).

SMILES | BAW Rating
O=C(NCc1ccc(/C=C/C(c2cc(Cl)c(Cl)c(Cl)c2)C(F)(F)F)cc1Br)C1CC1 (stereo not shown) [CC26] | A (50-100)
O=C(CC(F)(F)F)NCc1ccc(/C=C/C(c2cc(Cl)c(Cl)c(Cl)c2)C(F)(F)F)cc1F (stereo not shown) [CC27] | A (50-100)
O=C(NCc1ccc(/C=C/C(c2cc(Cl)c(Cl)c(Cl)c2)C(F)(F)F)cc1F)C1CC1 (stereo not shown) [CC28] | A (50-100)
O=C(C1CC1)N(Cc1ccccn1)Cc1ccc(/C=C/C(c2cc(Cl)c(Cl)c(Cl)c2)C(F)(F)F)cc1C(F)(F)F (stereo not shown) [CC29, (E)-N-(Pyridin-2-ylmethyl)-N-(4-(4,4,4-trifluoro-3-(3,4,5-trichlorophenyl)but-1-enyl)-2-(trifluoromethyl)benzyl)cyclopropanecarboxamide] | A (50-100)
CS(=O)(=O)CCC(=O)NCc1ccc(/C=C/C(c2cc(Cl)c(Cl)c(Cl)c2)C(F)(F)F)cc1Cl (stereo not shown) [CC30, (E)-N-(2-Chloro-4-(4,4,4-trifluoro-3-(3,4,5-trichlorophenyl)but-1-en-1-yl)benzyl)-3-(methylsulfonyl)propanamide] | A (50-100)
CCNC(=O)NCc1ccc(/C=C/C(c2cc(Cl)cc(Cl)c2)C(F)(F)F)cc1Cl (stereo not shown) [CC31, (E)-1-(2-Chloro-4-(3-(3,5-dichlorophenyl)-4,4,4-trifluorobut-1-en-1-yl)benzyl)-3-ethylurea] | B (More than 0-Less than 50)
CCNC(=O)NCc1ccc(/C=C/C(c2cc(Cl)c(Cl)c(Cl)c2)C(F)(F)F)cc1C(F)(F)F (stereo not shown) [CC32] | A (50-100)
CCNC(=O)NCc1ccc(/C=C/C(c2cc(Cl)c(Cl)c(Cl)c2)C(F)(F)F)cc1Br (stereo not shown) [CC33] | A (50-100)
O=C(NCc1ccc(/C=C/C(c2cc(Cl)c(Cl)c(Cl)c2)C(F)(F)F)cc1Cl)N1CCOCC1 (stereo not shown) [CC34] | A (50-100)
CN(C)C(=O)NCc1ccc(/C=C/C(c2cc(Cl)c(Cl)c(Cl)c2)C(F)(F)F)cc1Cl (stereo not shown) [CC36, (E)-3-(2-Chloro-4-(4,4,4-trifluoro-3-(3,4,5-trichlorophenyl)but-1-en-1-yl)benzyl)-1,1-dimethylurea] | A (50-100)
CCNC(=S)NCc1ccc(/C=C/C(c2cc(Cl)c(Cl)c(Cl)c2)C(F)(F)F)cc1Cl (stereo not shown) [CC37, (E)-1-(2-Chloro-4-(4,4,4-trifluoro-3-(3,4,5-trichlorophenyl)but-1-en-1-yl)benzyl)-3-ethylthiourea] | A (50-100)
C=CCNC(=S)NCc1ccc(/C=C/C(c2cc(Cl)c(Cl)c(Cl)c2)C(F)(F)F)cc1Cl (stereo not shown) [CC38] | A (50-100)
FC(F)(F)C(/C=C/c1ccc(CNc2ccccn2)c(Cl)c1)c1cc(Cl)c(Cl)c(Cl)c1 (stereo not shown) [CC43, (E)-N-(2-Chloro-4-(4,4,4-trifluoro-3-(3,4,5-trichlorophenyl)but-1-en-1-yl)benzyl)pyridin-2-amine] | A (50-100)
O=C(CC(F)(F)F)NCc1ncc(/C=C/C(c2cc(Cl)c(Cl)c(Cl)c2)C(F)(F)F)cc1Cl (stereo not shown) [CC44, (E)-N-((3-Chloro-5-(4,4,4-trifluoro-3-(3,4,5-trichlorophenyl)-but-1-en-1-yl)pyridin-2-yl)methyl)-3,3,3-trifluoropropanamide] | A (50-100)
O=C(NCc1ncc(/C=C/C(c2cc(Cl)c(Cl)c(Cl)c2)C(F)(F)F)cc1Cl)C1CC1 (stereo not shown) [CC45] | A (50-100)
O=C(NNc1ccc(/C=C/C(c2cc(Cl)c(Cl)c(Cl)c2)C(F)(F)F)cc1)C1CC1 (stereo not shown) [CC50, (E)-N′-(4-(4,4,4-Trifluoro-3-(3,4,5-trichlorophenyl)but-1-en-1-yl)phenyl)cyclopropanecarbohydrazide] | A (50-100)
O=C(CC(F)(F)F)NNc1ccc(/C=C/C(c2cc(Cl)c(Cl)c(Cl)c2)C(F)(F)F)cc1 (stereo not shown) [CC51] | A (50-100)
O=C(NOc1ccc(/C=C/C(c2cc(Cl)c(Cl)c(Cl)c2)C(F)(F)F)cc1)C1CC1 (stereo not shown) [CC52, (E)-N-(4-(4,4,4-Trifluoro-3-(3,4,5-trichlorophenyl)but-1-en-1-yl)phenoxy)cyclopropanecarboxamide] | A (50-100)
O=C(CC(F)(F)F)NCc1ccc(/C=C\C(c2cc(Cl)c(Cl)c(Cl)c2)C(F)(F)F)cc1 (stereo not shown) [CC54, (Z)-3,3,3-Trifluoro-N-(4-(4,4,4-trifluoro-3-(3,4,5-trichlorophenyl)but-1-en-1-yl)benzyl)propanamide] | A (50-100)
FC(F)(F)C(/C=C/c1ccc(-n2cncn2)cc1)c1cc(Cl)cc(Cl)c1 (stereo not shown) [DC1, (E)-1-(4-(3-(3,5-Dichlorophenyl)-4,4,4-trifluorobut-1-en-1-yl)phenyl)-1H-1,2,4-triazole] | A (50-100)
FC(F)(F)C(/C=C/c1ccc(-n2cncn2)cc1)c1ccccc1 (stereo not shown) [DC3] | B (More than 0-Less than 50)
FC(F)(F)C(/C=C/c1ccc(-n2cncn2)cc1)c1ccc(Cl)cc1 (stereo not shown) [DC4] | A (50-100)
Fc1ccc(C(/C=C/c2ccc(-n3cncn3)cc2)C(F)(F)F)cc1 (stereo not shown) [DC7] | A (50-100)
Fc1cc(F)cc(C(/C=C/c2ccc(-n3cncn3)cc2)C(F)(F)F)c1 (stereo not shown) [DC8] | A (50-100)
Cc1cc(C)cc(C(/C=C/c2ccc(-n3cncn3)cc2)C(F)(F)F)c1 (stereo not shown) [DC11] | A (50-100)
FC(F)(F)C(/C=C/c1ccc(-n2cncn2)cc1)c1ccc(Cl)c(Cl)c1 (stereo not shown) [DC12] | A (50-100)

SMILES | BAW Rating
FC(F)(F)c1cc(C(/C=C/c2ccc(-n3cncn3)cc2)C(F)(F)F)cc(C(F)(F)F)c1 (stereo not shown) [DC16] | A (50-100)
COc1c(Cl)cc(C(/C=C/c2ccc(-n3cncn3)cc2)C(F)(F)F)cc1Cl (stereo not shown) [DC20] | A (50-100)
N#Cc1cc(/C=C/C(c2cc(Cl)cc(C(F)(F)F)c2)C(F)(F)F)ccc1-n1cncn1 (stereo not shown) [DC33] | A (50-100)
COc1c(Cl)cc(C(/C=C/c2ccc(-n3cncn3)c(C#N)c2)C(F)(F)F)cc1Cl (stereo not shown) [DC34] | A (50-100)
N#Cc1cc(/C=C/C(c2cc(Cl)c(F)c(Cl)c2)C(F)(F)F)ccc1-n1cncn1 (stereo not shown) [DC35] | A (50-100)
N#Cc1cc(/C=C/C(c2cc(Cl)cc(Cl)c2)C(F)(F)F)ccc1-n1cnc([N+](=O)[O-])n1 (stereo not shown) [DC37] | A (50-100)
N#Cc1cc(/C=C/C(c2cc(Cl)cc(Cl)c2)C(F)(F)F)ccc1-n1cnc(N)n1 (stereo not shown) [DC38] | A (50-100)
CC(=O)Nc1ncn(-c2ccc(/C=C/C(c3cc(Cl)cc(Cl)c3)C(F)(F)F)cc2C#N)n1 (stereo not shown) [DC39] | A (50-100)
N#Cc1cc(/C=C/C(c2cc(Cl)c(Cl)c(Cl)c2)C(F)(F)F)ccc1-n1cnc([N+](=O)[O-])n1 (stereo not shown) [DC40, (E)-2-(3-Nitro-1H-1,2,4-triazol-1-yl)-5-(4,4,4-trifluoro-3-(3,4,5-trichlorophenyl)but-1-en-1-yl)benzonitrile] | A (50-100)
N#Cc1cc(/C=C/C(c2cc(Cl)c(Cl)c(Cl)c2)C(F)(F)F)ccc1-n1cnc(N)n1 (stereo not shown) [DC41, (E)-2-(3-Amino-1H-1,2,4-triazol-1-yl)-5-(4,4,4-trifluoro-3-(3,4,5-trichlorophenyl)but-1-en-1-yl)benzonitrile] | A (50-100)
N#Cc1cc(/C=C/C(c2cc(Cl)c(Cl)c(Cl)c2)C(F)(F)F)ccc1-n1cnc(N(C(=O)C2CC2)C(=O)C2CC2)n1 (stereo not shown) [DC42, (E)-N-(1-(2-Cyano-4-(4,4,4-trifluoro-3-(3,4,5-trichlorophenyl)but-1-en-1-yl)phenyl)-1H-1,2,4-triazol-3-yl)-N-(cyclopropanecarbonyl)cyclopropanecarboxamide] | A (50-100)
N#Cc1cc(/C=C/C(c2cc(Cl)c(Cl)c(Cl)c2)C(F)(F)F)ccc1-n1cnc(NC(=O)C2CC2)n1 (stereo not shown) [DC43, (E)-N-(1-(2-Cyano-4-(4,4,4-trifluoro-3-(3,4,5-trichlorophenyl)but-1-en-1-yl)phenyl)-1H-1,2,4-triazol-3-yl)cyclopropanecarboxamide] | A (50-100)
Cc1cc(/C=C/C(c2cc(Cl)cc(Cl)c2)C(F)(F)F)cc(C#N)c1-n1cncn1 (stereo not shown) [DC44] | A (50-100)
Cc1cc(/C=C/C(c2cc(Cl)c(Cl)c(Cl)c2)C(F)(F)F)cc(C#N)c1-n1cncn1 (stereo not shown) [DC45] | A (50-100)
N#Cc1cc(/C=C\C(c2cc(Cl)c(F)c(Cl)c2)C(F)(F)F)ccc1-n1cncn1 (stereo not shown) [DC46] | A (50-100)
FC(F)(F)C(/C=C/c1ccc(-n2cncn2)c(Br)c1)c1cc(Cl)cc(Cl)c1 (stereo not shown) [DC47] | A (50-100)
Fc1cc(/C=C/C(c2cc(Cl)cc(Cl)c2)C(F)(F)F)ccc1-n1cncn1 (stereo not shown) [DC48] | A (50-100)
FC(F)(F)C(/C=C/c1ccc(-n2cncn2)c(Cl)c1)c1cc(Cl)c(Cl)c(Cl)c1 (stereo not shown) [DC49] | A (50-100)
FC(F)(F)C(/C=C/c1ccc(-n2cncn2)c(Cl)c1)c1cc(Cl)cc(Cl)c1 (stereo not shown) [DC50] | A (50-100)
FC(F)(F)c1cc(/C=C/C(c2cc(Cl)cc(Cl)c2)C(F)(F)F)ccc1-n1cncn1 (stereo not shown) [DC51] | A (50-100)
CNc1cc(/C=C/C(c2cc(Cl)cc(Cl)c2)C(F)(F)F)ccc1-n1cncn1 (stereo not shown) [DC57, (E)-5-(3-(3,5-Dichlorophenyl)-4,4,4-trifluorobut-1-en-1-yl)-N-methyl-2-(1H-1,2,4-triazol-1-yl)aniline] | A (50-100)
CCOC(=O)c1cc(/C=C/C(c2cc(Cl)cc(Cl)c2)C(F)(F)F)ccc1-n1cncn1 (stereo not shown) [DC60] | A (50-100)
Cc1cc(/C=C/C(c2cc(Cl)cc(Cl)c2)C(F)(F)F)ccc1-n1cncn1 (stereo not shown) [DC62] | A (50-100)
Cc1cc(/C=C/C(c2cc(Cl)c(Cl)c(Cl)c2)C(F)(F)F)ccc1-n1cncn1 (stereo not shown) [DC63] | A (50-100)
FC(F)(F)C(/C=C/c1ccc(-n2cncn2)cc1Cl)c1cc(Cl)c(Cl)c(Cl)c1 (stereo not shown) [DC66] | A (50-100)
FC(F)(F)C(/C=C/c1ccc(-n2cncn2)cc1Cl)c1cc(Cl)cc(Cl)c1 (stereo not shown) [DC67] | A (50-100)
